Among the data in article PMC6968503, “Synthesis and human carbonic anhydrase I, II, VA, and XII inhibition with novel amino acid–sulphonamide conjugates” (Journal of Enzyme Inhibition and Medicinal Chemistry, 2020) are Ki values, retold here.

What all share (assay): stopped-flow CO2 hydration
Format in all cases: biochemical

One assay concerns the target T1, hCA VA (Homo sapiens, UniProt P35218).
T1 construct: gene CA5A
An excerpt: stopped-flow CO2 hydration on hCA VA

The target of a further assay is T2, hCA II (Homo sapiens, UniProt P00918).
T2 construct: gene CA2
From the text: stopped-flow CO2 hydration on hCA II

In a further assay the target is T3, hCA I (Homo sapiens, UniProt P00915).
T3 construct: gene CA1
T3 sequence (P00915 2-261): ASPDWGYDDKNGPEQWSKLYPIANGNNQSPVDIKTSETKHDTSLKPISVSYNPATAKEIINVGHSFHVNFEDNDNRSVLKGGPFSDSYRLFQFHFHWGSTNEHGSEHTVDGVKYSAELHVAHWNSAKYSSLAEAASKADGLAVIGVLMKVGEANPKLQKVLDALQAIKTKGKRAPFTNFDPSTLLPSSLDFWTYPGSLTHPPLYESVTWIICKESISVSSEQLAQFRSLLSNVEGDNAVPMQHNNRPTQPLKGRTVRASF
From the text: stopped-flow CO2 hydration on hCA I

A further assay concerns the target T4, hCA XII (Homo sapiens, UniProt O43570).
T4 construct: gene CA12
From the text: stopped-flow CO2 hydration on hCA XII

Read-outs that look alike come from different tables or passages of the source.

T4 sequence (O43570 25-354): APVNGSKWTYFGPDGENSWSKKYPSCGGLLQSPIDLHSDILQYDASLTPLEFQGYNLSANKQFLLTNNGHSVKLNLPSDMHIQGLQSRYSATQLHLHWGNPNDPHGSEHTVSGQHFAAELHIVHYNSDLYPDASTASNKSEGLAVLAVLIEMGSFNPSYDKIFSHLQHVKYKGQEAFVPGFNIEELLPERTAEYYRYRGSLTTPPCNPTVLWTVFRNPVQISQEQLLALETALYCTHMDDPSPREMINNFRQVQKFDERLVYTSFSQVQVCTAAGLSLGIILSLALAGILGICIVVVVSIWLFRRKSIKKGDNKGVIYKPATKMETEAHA
T1 sequence (P35218 39-305): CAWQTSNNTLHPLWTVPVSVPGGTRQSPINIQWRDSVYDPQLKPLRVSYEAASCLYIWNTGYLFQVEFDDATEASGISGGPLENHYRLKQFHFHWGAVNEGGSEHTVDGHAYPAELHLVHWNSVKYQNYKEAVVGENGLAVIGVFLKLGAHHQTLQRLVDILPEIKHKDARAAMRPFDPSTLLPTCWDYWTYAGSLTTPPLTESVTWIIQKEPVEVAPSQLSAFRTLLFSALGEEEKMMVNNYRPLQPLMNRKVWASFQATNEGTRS

In general, Ki refers to a measure of affinity in units of concentration, obtained from inhibition or displacement. Higher therefore signals lower affinity. For the compound `CC(C)C[C@@H](NC(=O)OCc1ccccc1)C(=O)NCCc1ccc(S(N)(=O)=O)cc1` [compound 1, Benzyl (R)-(4-methyl-1-oxo-1-((4-sulphamoylphenethyl)amino)pentan-2-yl)carbamate], the Ki on hCA VA (CO2 […], […] HEPES pH […] Na2SO4, […] min preincubation, room temperature) came out at 58.7 nM; on hCA II it was 8.3 nM; at hCA I, 49.5 nM; on hCA XII, 27.4 nM.
Regarding `CSCC[C@@H](NC(=O)OCc1ccccc1)C(=O)NCCc1ccc(S(N)(=O)=O)cc1` [compound 2, Benzyl (R)-(4-(methylthio)-1-oxo-1-((4-sulphamoylphenethyl)amino)butan-2-yl)carbamate], the Ki on hCA VA is 63.4 nM; on hCA II it was 1.7 nM; at hCA XII, 53.9 nM.
Turning to `CC(C)[C@@H](NC(=O)OCc1ccccc1)C(=O)NCCc1ccc(S(N)(=O)=O)cc1` [compound 3, Benzyl (R)-(3-methyl-1-oxo-1-((4-sulphamoylphenethyl)amino)butan-2-yl)carbamate], the Ki is 60.3 nM on hCA VA, 51.6 nM at hCA I and 7.2 nM at hCA XII.
In the case of `NS(=O)(=O)c1ccc(CCNC(=O)[C@@H](CSc2ccccc2)NC(=O)OCc2ccccc2)cc1` [compound 4, Benzyl (S)-(1-oxo-3-(phenylthio)-1-((4-sulphamoylphenethyl)amino)propan-2-yl)carbamate], the Ki on hCA VA is 63.3 nM; on hCA I, 352 nM; on hCA XII, 8.4 nM.
Take `C[C@@H](NC(=O)OC(C)(C)C)C(=O)NCCc1ccc(S(N)(=O)=O)cc1` [compound 5, tert-Butyl (R)-(1-oxo-1-((4-sulphamoylphenethyl)amino)propan-2-yl)carbamate]: the Ki was determined as 68.7 nM on hCA VA, 6.6 nM on hCA II, 73.5 nM on hCA I and 45.6 nM on hCA XII.
For the compound `NS(=O)(=O)c1ccc(CCNC(=O)CNC(=O)OCC2c3ccccc3-c3ccccc32)cc1` [compound 6, (9H-fluoren-9-yl)methyl (2-oxo-2-((4-sulphamoylphenethyl)amino)ethyl)carbamate], the inhibition constant Ki is 67.9 nM at hCA VA, 6.4 nM at hCA II, 36 nM at hCA I and 8.2 nM on hCA XII.
`NS(=O)(=O)c1ccc(CCNC(=O)[C@H](Cc2ccccc2)NC(=O)OCC2c3ccccc3-c3ccccc32)cc1` [compound 7, (9H-fluoren-9-yl)methyl (S)-(1-oxo-3-phenyl-1-((4-sulphamoylphenethyl)amino)propan-2-yl)carbamate]: the Ki worked out at 3440 nM on hCA VA, 76.4 nM on hCA II, 697 nM on hCA I and 38.9 nM on hCA XII.
On to `NS(=O)(=O)c1ccc(CCNC(=O)[C@@H](Cc2c[nH]c3ccccc23)NC(=O)OCc2ccccc2)cc1` [compound 8, Benzyl (R)-(3-(1H-indol-3-yl)-1-oxo-1-((4-sulphamoylphenethyl)amino)propan-2-yl)carbamate], for which the Ki on hCA VA worked out at 3010 nM; on hCA II, 6.5 nM; on hCA I, 528 nM; on hCA XII, 5.5 nM.
On to `CSCC[C@H](NC(=O)OC(C)(C)C)C(=O)NCCc1ccc(S(N)(=O)=O)cc1` [compound 9, tert-Butyl (S)-(4-(methylthio)-1-oxo-1-((4-sulphamoylphenethyl)amino)butan-2-yl)carbamate], for which the inhibitory constant (Ki) at hCA VA was determined as 611 nM; on hCA I it was 4390 nM; at hCA XII it was 329 nM.
Taken in the same sequence, the figures for `CC(C)[C@@H](NC(=O)OC(C)(C)C)C(=O)NCCc1ccc(S(N)(=O)=O)cc1` [compound 10, tert-Butyl (R)-(3-methyl-1-oxo-1-((4-sulphamoylphenethyl)amino)butan-2-yl)carbamate] were 661 nM, 2990 nM and 197 nM.
Take `CC[C@@H](C)[C@@H](NC(=O)OC(C)(C)C)C(=O)NCCc1ccc(S(N)(=O)=O)cc1` [compound 11, tert-Butyl ((2R,3R)-3-methyl-1-oxo-1-((4-sulphamoylphenethyl)amino)pentan-2-yl)carbamate]: the Ki amounted to 3870 nM on hCA VA, 349 nM at hCA I and 56.2 nM on hCA XII.
For the compound `NS(=O)(=O)c1ccc(CCNC(=O)C[C@@H](NC(=O)OCc2ccccc2)C(=O)NCCc2ccc(S(N)(=O)=O)cc2)cc1` [compound 12, Benzyl (R)-(1,4-dioxo-1,4-bis((4-sulphamoylphenethyl)amino)butan-2-yl)carbamate], the Ki at hCA VA is 3140 nM; on hCA II it was 215 nM; on hCA I it was 689 nM; at hCA XII, 24.4 nM.
For the compound `CC(C)C[C@@H](NC(=O)OCc1ccccc1)C(=O)NCc1ccc(S(N)(=O)=O)cc1` [compound 13, Benzyl (R)-(4-methyl-1-oxo-1-((4-sulphamoylbenzyl)amino)pentan-2-yl)carbamate], the inhibitory constant (Ki) on hCA VA came to 578 nM; on hCA II, 86.6 nM; at hCA I, 61.1 nM; at hCA XII it was 39.8 nM.
With `CSCC[C@@H](NC(=O)OCc1ccccc1)C(=O)NCc1ccc(S(N)(=O)=O)cc1` [compound 14, Benzyl (R)-(4-(methylthio)-1-oxo-1-((4-sulphamoylbenzyl)amino)butan-2-yl)carbamate], the inhibitory constant (Ki) was found to be 384 nM at hCA VA, 8.9 nM on hCA II, 9.3 nM on hCA I and 74.3 nM on hCA XII.
Turning to `CC(C)[C@@H](NC(=O)OCc1ccccc1)C(=O)NCc1ccc(S(N)(=O)=O)cc1` [compound 15, Benzyl (R)-(3-methyl-1-oxo-1-((4-sulphamoylbenzyl)amino)butan-2-yl)carbamate], the Ki amounted to 503 nM at hCA VA, 28.4 nM at hCA II, 8.1 nM at hCA I and 67.7 nM at hCA XII.
Regarding `NS(=O)(=O)c1ccc(CNC(=O)[C@@H](CSc2ccccc2)NC(=O)OCc2ccccc2)cc1` [compound 16, Benzyl (S)-(1-oxo-3-(phenylthio)-1-((4-sulphamoylbenzyl)amino)propan-2-yl)carbamate], the Ki on hCA VA worked out at 3960 nM; on hCA II, 3.3 nM; at hCA I it was 764 nM; on hCA XII, 37.1 nM.
`CC(C)(C)OC(=O)NCC(=O)NCc1ccc(S(N)(=O)=O)cc1` [compound 17, tert-Butyl (2-oxo-2-((4-sulphamoylbenzyl)amino)ethyl)carbamate]: the Ki on hCA VA is 3650 nM; on hCA II, 6.8 nM; on hCA I, 3340 nM; at hCA XII it was 8.8 nM.
In the case of `C[C@@H](NC(=O)OC(C)(C)C)C(=O)NCc1ccc(S(N)(=O)=O)cc1` [compound 18, tert-Butyl (R)-(1-oxo-1-((4-sulphamoylbenzyl)amino)propan-2-yl)carbamate], the Ki amounted to 5360 nM at hCA VA, 6.8 nM at hCA II, 3890 nM at hCA I and 20.6 nM at hCA XII.
For the compound `CC(C)(C)OC(=O)N[C@H](Cc1ccccc1)C(=O)NCc1ccc(S(N)(=O)=O)cc1` [compound 19, tert-Butyl (R)-(1-oxo-3-phenyl-1-((4-sulphamoylbenzyl)amino)propan-2-yl)carbamate], the Ki amounted to 734 nM at hCA VA, 61.4 nM on hCA II, 3780 nM on hCA I and 6.9 nM on hCA XII.
As for `NS(=O)(=O)c1ccc(CNC(=O)[C@H](Cc2ccccc2)NC(=O)OCC2c3ccccc3-c3ccccc32)cc1` [compound 20, (9H-fluoren-9-yl)methyl (S)-(1-oxo-3-phenyl-1-((4-sulphamoylbenzyl)amino)propan-2-yl)carbamate], the Ki on hCA VA was 6830 nM; at hCA II, 693 nM; on hCA I, 5170 nM; at hCA XII, 26.7 nM.
Taken in the same sequence, the figures for `CSCC[C@@H](NC(=O)OC(C)(C)C)C(=O)NCc1ccc(S(N)(=O)=O)cc1` [compound 21, tert-Butyl (R)-(4-(methylthio)-1-oxo-1-((4-sulphamoylbenzyl)amino)butan-2-yl)carbamate] were 4990 nM, 316 nM, 5360 nM and 3.9 nM.
Regarding `CC(C)[C@@H](NC(=O)OC(C)(C)C)C(=O)NCc1ccc(S(N)(=O)=O)cc1` [compound 22, tert-Butyl (R)-(3-methyl-1-oxo-1-((4-sulphamoylbenzyl)amino)butan-2-yl)carbamate], the inhibitory constant (Ki) on hCA VA amounted to 4780 nM; on hCA II it was 168 nM; at hCA I it was 753 nM; at hCA XII, 90.1 nM.
For the compound `NS(=O)(=O)c1ccc(CNC(=O)[C@@H](Cc2c[nH]c3ccccc23)NC(=O)OCc2ccccc2)cc1` [compound 23, Benzyl (R)-(3-(1H-indol-3-yl)-1-oxo-1-((4-sulphamoylbenzyl)amino)propan-2-yl)carbamate], the Ki turned out to be 401 nM on hCA VA, 0.9 nM at hCA II, 305 nM at hCA I and 78.1 nM on hCA XII.
In the case of `CC[C@@H](C)[C@@H](NC(=O)OC(C)(C)C)C(=O)NCc1ccc(S(N)(=O)=O)cc1` [compound 24, tert-Butyl ((2R,3R)-3-methyl-1-oxo-1-((4-sulphamoylbenzyl)amino)pentan-2-yl)carbamate], the Ki on hCA VA stood at 4580 nM; on hCA II, 0.8 nM; on hCA I it was 178 nM; on hCA XII, 50.3 nM.
